# Measured values reported in article PMC9171587, “Novel α-Amylase Inhibitor Hemi-Pyocyanin Produced by Microbial Conversion of Chitinous Discards” (Marine Drugs, 2022).
# Target: T1, Porcine pancreatic α-amylase (Sus scrofa, UniProt P00690)
# T1 construct: gene AMY2
# T1 sequence (P00690 16-511): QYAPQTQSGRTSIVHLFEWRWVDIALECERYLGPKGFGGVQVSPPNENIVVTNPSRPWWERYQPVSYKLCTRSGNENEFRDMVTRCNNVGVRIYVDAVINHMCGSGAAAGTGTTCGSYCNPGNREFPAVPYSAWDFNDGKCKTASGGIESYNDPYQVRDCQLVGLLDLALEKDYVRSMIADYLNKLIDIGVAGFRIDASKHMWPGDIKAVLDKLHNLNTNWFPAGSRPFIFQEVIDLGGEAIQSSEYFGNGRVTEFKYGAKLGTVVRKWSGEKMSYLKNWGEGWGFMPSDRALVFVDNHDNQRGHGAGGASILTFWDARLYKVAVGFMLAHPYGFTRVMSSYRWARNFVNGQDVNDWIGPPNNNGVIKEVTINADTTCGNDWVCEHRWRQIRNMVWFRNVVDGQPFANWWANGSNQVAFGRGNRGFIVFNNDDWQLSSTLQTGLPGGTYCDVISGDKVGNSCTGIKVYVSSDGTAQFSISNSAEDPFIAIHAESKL
# Assay: starch hydrolysis assay (Bernfeld, reducing sugar at OD540) with commercial enzyme type VI-B
# Type: biochemical
smiles,measurement,value
"Oc1cccc2nc3ccccc3nc12 [SF-1, hemi-pyocyanin]",IC50,15.8 µM
